# Literature values in patent publication US20230076527A1, “TREATMENT OF PAROXYSMAL NOCTURNAL HEMOGLOBINURIA” (Apellis Pharmaceuticals, Inc., priority 2020, published 2023).
# Tested on: complement activation
# Conditions: relative to compstatin amidated at the C-terminus; published data; cited from earlier work
row,Substance,Activity over compstatin [xmore]
1,Ac-1CV(2-Igl)QDWGAHRCT-CONH2 [Ac-V42Igl/H9A],39
2,"Ac-ICV(1-Nal)QDWGAHRCT-COOH (N-acetyl, 1-Nal) [Ac V4(1-Nal)/H9A -OH]",30
3,"Ac-ICV(2-Igl)QDWGAHRCT-COOH (N-acetyl, 2-Igl) [Ac-V42Igl/H9A -OH]",37
4,"Ac-ICV(2-Nal)QDWGAHRCT-CONH2 (N-acetyl, C-amide, 2-Nal) [Ac-V4(2-Nal)/H9A]",99
5,"Ac-ICV(2-Nal)QDWGAHRCT-COOH (N-acetyl, 2-Nal) [Ac V4(2-Nal)/H9A -OH]",38
6,"Ac-ICV(Bpa)QDWGAHRCT-CONH2 (N-acetyl, C-amide, Bpa) [Ac-V4(Bpa)/H9A]",86
7,"Ac-ICV(Bpa)QDWGAHRCT-COOH (N-acetyl, Bpa) [Ac-V4(Bpa)/H9A -OH]",49
8,Ac-ICVDhtQDWGAHRCT-COOH [Ac-V4Dht/H9A -OH],5
9,Ac-ICVVQDWGHHRCT-CONH2 [Ac-compstatin],3
10,Ac-ICVWQD(5fW)GAHRCT-CONH2 [Ac-V4W/W7(5fW)/H9A],121
11,Ac-ICVWQDWGAHRCT-CONH2 (Ac-ICVWQDWGAHRCT-NH2; cysteine pairing not given here) [Ac-V4W/H9A],45
12,Ac-ICVWQDWGAHRCdT-COOH [AC-V4W/H9A/T13dT -OH],55
13,Ac-ICVYQDWGAHRCT-CONH2 [AC-V4Y/H9A],14
14,H-GICV(6fW)QD(6fW)GAHRCTN-COOH (6-fluoro-Trp) [+G/V4(6fW)/W7(6fW)H9A+N -OH],126
